Test results: US20240101570A1 (AMGEN INC., priority 2020, published 2024)

Tests used:
HCT116 WT cells = experiment: HCT116 WT cell proliferation / viability (CellTiter-Glo, 6 days); format: cell-based; settings: Homo sapiens, HCT-116, 144 h, HCT116 WT cells, 6 days, CellTiter-Glo; read-out: HCT-116 WT IC50
Procedure, shortened: (§1)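 IC50 values derive from sigmoidal dose-response fits, some with Hill slope fixed at −1 and top constrained to 100%, others from 4-parameter logistic models. They reflect CellTiter-Glo viability after 6 days of compound exposure at up to 10 or 50 μM.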

HCT116 MTAP null cells = experiment: HCT116 MTAP null cell proliferation / viability (CellTiter-Glo, 6 days); format: cell-based; settings: HCT116-MTAP null, 144 h, HCT116 MTAP null cells, 6 days, CellTiter-Glo; read-out: HCT-116 MTAP null IC50
Procedure, shortened: as §1

| IC50 (HCT116 WT cells) | IC50 (HCT116 MTAP null cells) | SMILES |
| --- | --- | --- |
| 240 nM | 7 nM | Nc1nc2cc(Cl)c(C(=O)N(Cc3ccc(C(F)(F)F)cn3)CC3CC3)cc2c2c1COC2 [Example 464, 4-amino-7-chloro-N-(cyclopropylmethyl)-N-((5-(trifluoromethyl)-2-pyridinyl)methyl)-1,3-dihydrofuro[3,4-c]quinoline-8-carboxamide] |
| 1230 nM | 31 nM | CC(C)N(Cc1ccc(OC(F)(F)F)cn1)C(=O)c1ccc2nc(N)c3c(c2c1)CO[C@@H]3C [Example 465, (3R)-4-amino-3-methyl-N-(2-propanyl)-N-((5-(trifluoromethoxy)-2-pyridinyl)methyl)-1,3-dihydrofuro[3,4-c]quinoline-8-carboxamide] |
| 217 nM | 28 nM | C[C@H](c1ncn(C)n1)N(Cc1ccc(C(F)F)cn1)C(=O)c1ccc2nc(N)c3c(c2c1)CO[C@@H]3C [Example 466, (3R)-4-amino-N-((5-(difluoromethyl)-2-pyridinyl)methyl)-3-methyl-N-((1R)-1-(1-methyl-1H-1,2,4-triazol-3-yl)ethyl)-1,3-dihydrofuro[3,4-c]quinoline-8-carboxamide] |
| 332 nM | 14 nM | C[C@H]1OCc2c1c(N)nc1ccc(C(=O)N(Cc3ccc(C(F)(F)F)cn3)c3cnn(C)c3)cc21 [Example 467, (3R)-4-amino-3-methyl-N-(1-methyl-1H-pyrazol-4-yl)-N-((5-(trifluoromethyl)-2-pyridinyl)methyl)-1,3-dihydrofuro[3,4-c]quinoline-8-carboxamide] |
| 208 nM | 8 nM | COC[C@@H](C)N(Cc1ccc(Br)nn1)C(=O)c1ccc2nc(N)c3c(c2c1)CO[C@@H]3C [Example 468, (3R)-4-amino-N-((6-bromo-3-pyridazinyl)methyl)-N-((2R)-1-methoxy-2-propanyl)-3-methyl-1,3-dihydrofuro[3,4-c]quinoline-8-carboxamide] |
| 550 nM | 25 nM | C[C@H](c1ncccn1)N(Cc1cc2c(cn1)OCCC2)C(=O)c1ccc2nc(N)c3c(c2c1)COC3 [Example 469, 4-amino-N-(3,4-dihydro-2H-pyrano [2,3-c]pyridin-6-ylmethyl)-N-((1R)-1-(2-pyrimidinyl)ethyl)-1,3-dihydrofuro[3,4-c]quinoline-8-carboxamide] |
| 3020 nM | 41 nM | CN(Cc1ccc(C(F)(F)F)cn1)C(=O)c1cc2c3c(c(N)nc2cc1Cl)COC3 [Example 470, 4-amino-7-chloro-N-methyl-N-((5-(trifluoromethyl)-2-pyridinyl)methyl)-1,3-dihydrofuro[3,4-c]quinoline-8-carboxamide] |
| 1160 nM | 43 nM | Nc1nc2ccc(C(=O)N(Cc3ccc(C(F)(F)F)cn3)C34CC(C3)C4)cc2c2c1COC2 [Example 471, 4-amino-N-(bicyclo[1.1.1]pentan-1-yl)-N-((5-(trifluoromethyl)-2-pyridinyl)methyl)-1,3-dihydrofuro[3,4-c]quinoline-8-carboxamide] |
| 14900 nM | 267 nM | CN(Cc1ccc(C#N)cn1)C(=O)c1cc2c3c(c(N)nc2cc1Cl)COC3 [Example 472, 4-amino-7-chloro-N-((5-cyano-2-pyridinyl)methyl)-N-methyl-1,3-dihydrofuro[3,4-c]quinoline-8-carboxamide] |
| 1330 nM | 30 nM | N#Cc1ccc(CN(CC2CC2)C(=O)c2cc3c4c(c(N)nc3cc2Cl)COC4)nc1 [Example 474, 4-amino-7-chloro-N-((5-cyano-2-pyridinyl)methyl)-N-(cyclopropylmethyl)-1,3-dihydrofuro[3,4-c]quinoline-8-carboxamide] |
| 7810 nM | 375 nM | CN(Cc1ccc(C(F)(F)F)cn1)C(=O)c1cc2c3c(c(N)nc2cc1F)COC3 [Example 475, 4-amino-7-fluoro-N-methyl-N-((5-(trifluoromethyl)-2-pyridinyl)methyl)-1,3-dihydrofuro[3,4-c]quinoline-8-carboxamide] |
| 4460 nM | 1370 nM | N#Cc1ccc(CN(C(=O)c2cc3c4c(c(N)nc3cc2F)COC4)C2CC2)nc1 [Example 476, 4-amino-N-((5-cyano-2-pyridinyl)methyl)-N-cyclopropyl-7-fluoro-1,3-dihydrofuro[3,4-c]quinoline-8-carboxamide] |
| 19400 nM | 655 nM | CC(C)N(Cc1ccc(C#N)cn1)C(=O)c1cc2c3c(c(N)nc2cc1F)COC3 [Example 477, 4-amino-N-((5-cyano-2-pyridinyl)methyl)-7-fluoro-N-(2-propanyl)-1,3-dihydrofuro[3,4-c]quinoline-8-carboxamide] |
| 9580 nM | 82 nM | CN(Cc1ccc(C2CC2)cn1)C(=O)c1cc2c3c(c(N)nc2cc1Cl)COC3 [Example 478, 4-amino-7-chloro-N-((5-cyclopropyl-2-pyridinyl)methyl)-N-methyl-1,3-dihydrofuro[3,4-c]quinoline-8-carboxamide] |
| 17100 nM | 328 nM | CN(Cc1ccc(C#N)cn1)C(=O)c1cc2c3c(c(N)nc2cc1F)COC3 [Example 479, 4-amino-N-((5-cyano-2-pyridinyl)methyl)-7-fluoro-N-methyl-1,3-dihydrofuro[3,4-c]quinoline-8-carboxamide] |
| 1450 nM | 272 nM | Nc1nc2cc(Cl)c(C(=O)N(Cc3ccc(C4CC4)cn3)C3CC3)cc2c2c1COC2 [Example 480, 4-amino-7-chloro-N-cyclopropyl-N-((5-cyclopropyl-2-pyridinyl)methyl)-1,3-dihydrofuro[3,4-c]quinoline-8-carboxamide] |
| 5710 nM | 74 nM | C[C@H]1OCc2c1c(N)nc1ccc(C(=O)N(Cc3ccc(C(F)(F)F)cn3)CC(F)(F)F)cc21 [Example 481, (3R)-4-amino-3-methyl-N-(2,2,2-trifluoroethyl)-N-((5-(trifluoromethyl)-2-pyridinyl)methyl)-1,3-dihydrofuro[3,4-c]quinoline-8-carboxamide] |
| 2640 nM | 52 nM | CCOc1ccc(CN(C(=O)c2ccc3nc(N)c4c(c3c2)CO[C@@H]4C)C23CC(C2)C3)nn1 [Example 482, (3R)-4-amino-N-(bicyclo[1.1.1]pentan-1-yl)-N-((6-ethoxy-3-pyridazinyl)methyl)-3-methyl-1,3-dihydrofuro[3,4-c]quinoline-8-carboxamide] |
| 7290 nM | 458 nM | Nc1nc2ccc(C(=O)N(Cc3ccc(C(F)(F)F)cn3)CC(F)(F)F)cc2c2c1COC2 [Example 483, 4-amino-N-(2,2,2-trifluoroethyl)-N-((5-(trifluoromethyl)-2-pyridinyl)methyl)-1,3-dihydrofuro[3,4-c]quinoline-8-carboxamide] |
| 402 nM | 20 nM | CC(C)N(Cc1ccc(C(F)(F)F)cn1)C(=O)c1cc2c3c(c(N)nc2cc1Cl)COC3 [Example 484, 4-amino-7-chloro-N-(2-propanyl)-N-((5-(trifluoromethyl)-2-pyridinyl)methyl)-1,3-dihydrofuro[3,4-c]quinoline-8-carboxamide] |
| 32100 nM | 365 nM | C[C@H]1OCc2c1c(N)nc1ccc(C(=O)N(C)Cc3ccc(C(F)(F)F)nn3)cc21 [Example 485, (3R)-4-amino-N,3-dimethyl-N-((6-(trifluoromethyl)-3-pyridazinyl)methyl)-1,3-dihydrofuro[3,4-c]quinoline-8-carboxamide] |
| 17500 nM | 445 nM | Nc1nc2cnc(C(=O)N(Cc3ccc(C(F)(F)F)cn3)CC(F)(F)F)cc2c2c1COC2 [Example 486, 4-amino-N-(2,2,2-trifluoroethyl)-N-((5-(trifluoromethyl)-2-pyridinyl)methyl)-1,3-dihydrofuro[3,4-c][1,7]naphthyridine-8-carboxamide] |
| 5210 nM | 276 nM | C[C@H]1OCc2c1c(N)nc1ccc(C(=O)N(Cc3ccc(C(F)(F)F)cn3)C3CCOCC3)cc21 [Example 489, (3R)-4-amino-3-methyl-N-(tetrahydro-2H-pyran-4-yl)-N-((5-(trifluoromethyl)-2-pyridinyl)methyl)-1,3-dihydrofuro[3,4-c]quinoline-8-carboxamide] |
| 3480 nM | 87 nM | Nc1nc2cc(Cl)c(C(=O)N(Cc3ccc(C(F)(F)F)nn3)C3CC3)cc2c2c1COC2 [Example 490, 4-amino-7-chloro-N-cyclopropyl-N-((6-(trifluoromethyl)-3-pyridazinyl)methyl)-1,3-dihydrofuro[3,4-c]quinoline-8-carboxamide] |
| 622 nM | 48 nM | Cn1cc(N(Cc2ccc(C(F)(F)F)cn2)C(=O)c2cc3c4c(c(N)nc3cn2)CCC4)cn1 [Example 492, 6-amino-N-(1-methyl-1H-pyrazol-4-yl)-N-((5-(trifluoromethyl)-2-pyridinyl)methyl)-8,9-dihydro-7H-cyclopenta[c][1,7]naphthyridine-2-carboxamide] |
| 1160 nM | 124 nM | Cn1cc(N(Cc2ccc(C(F)F)cn2)C(=O)c2cc3c4c(c(N)nc3cn2)CCC4)cn1 [Example 493, 6-amino-N-((5-(difluoromethyl)-2-pyridinyl)methyl)-N-(1-methyl-1H-pyrazol-4-yl)-8,9-dihydro-7H-cyclopenta[c][1,7]naphthyridine-2-carboxamide] |
| 9070 nM | 282 nM | Cn1ncc2c3cc(C(=O)N(Cc4ccc(C(F)(F)F)cn4)C4(C)CC4)ccc3nc(N)c21 [Example 494, 4-amino-3-methyl-N-(1-methylcyclopropyl)-N-((5-(trifluoromethyl)-2-pyridinyl)methyl)-3H-pyrazolo[3,4-c]quinoline-8-carboxamide] |
| 6360 nM | 79 nM | Cn1cc(N(Cc2ccc(C(F)(F)F)cn2)C(=O)c2ccc3nc(N)c4c(cnn4C)c3c2)cn1 [Example 495, 4-amino-3-methyl-N-(1-methyl-1H-pyrazol-4-yl)-N-((5-(trifluoromethyl)-2-pyridinyl)methyl)-3H-pyrazolo[3,4-c]quinoline-8-carboxamide] |
